Values of other authors as cited in patent US20210205766A1, “METHODS AND RELATED APPARATUS FOR PROVIDING A PROCESSING SOLUTION FOR A FOOD PROCESSING APPLICATION” (Zee Company, Inc., priority 2016, published 2021).

Settings: about half active (free), about half dissociated (bound) at pH of about 8.4

## peroxyacetic acid [PAA]
  pKA: about 8.4
